Laboratory results as given in PubChem BioAssay AID248 (DTP/NCI, 2004).
Several values for one entry are separate records, joined by “and”; a condition that tells them apart may be missing. Equal entries are not always repeated. Toxic doses and inconclusive results are not listed. Rule as the data show it: active = T/C of 150% or more; inactive = T/C below 125%.

Tested on: L1210 leukemia ip in BDF1 mice, survival T/C
Assay: NCI In Vivo Anticancer Drug Screen. Data for tumor model L1210 Leukemia (intraperitoneal) in B6D2F1 (BDF1) mice
Details: endpoint: mean survival time, higher = longer survival
Procedure, shortened: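 Survival endpoint. Drug-treated group vs vehicle group, expressed as T divided by C. Tumor passaged by transplantation.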

[1] = dose: 100.0 mg/kg/injection, schedule: Q04DX003 (ip), vehicle: saline
[2] = dose: 200.0 mg/kg/injection, schedule: Q04DX003 (ip), vehicle: saline
[3] = dose: 400.0 mg/kg/injection, schedule: Q04DX003 (ip), vehicle: saline
[4] = dose: 75.0 mg/kg/injection, schedule: Q01DX001 (ip), vehicle: saline
[5] = dose: 150.0 mg/kg/injection, schedule: Q01DX001 (ip), vehicle: saline
[6] = dose: 100.0 mg/kg/injection, schedule: Q01DX009 (ip), vehicle: Klucel (hydroxypropylcellulose) (HPC)
[7] = dose: 100.0 mg/kg/injection, schedule: Q04DX003 (ip), vehicle: Klucel (hydroxypropylcellulose) (HPC)
[8] = dose: 200.0 mg/kg/injection, schedule: Q01DX009 (ip), vehicle: Klucel (hydroxypropylcellulose) (HPC)
[9] = dose: 200.0 mg/kg/injection, schedule: Q04DX003 (ip), vehicle: Klucel (hydroxypropylcellulose) (HPC)
[10] = dose: 400.0 mg/kg/injection, schedule: Q01DX009 (ip), vehicle: Klucel (hydroxypropylcellulose) (HPC)
[11] = dose: 400.0 mg/kg/injection, schedule: Q04DX003 (ip), vehicle: Klucel (hydroxypropylcellulose) (HPC)
[12] = dose: 100.0 mg/kg/injection, schedule: Q01DX009 (ip), vehicle: saline
[13] = dose: 100.0 mg/kg/injection, schedule: Q01DX001 (ip), vehicle: carboxymethylcellulose (CMC)
[14] = dose: 200.0 mg/kg/injection, schedule: Q01DX001 (ip), vehicle: carboxymethylcellulose (CMC)
[15] = dose: 400.0 mg/kg/injection, schedule: Q01DX001 (ip), vehicle: carboxymethylcellulose (CMC)
[16] = dose: 50.0 mg/kg/injection, schedule: Q04DX003 (ip), vehicle: Klucel (hydroxypropylcellulose) (HPC)
[17] = dose: 100.0 mg/kg/injection, schedule: Q04DX003 (ip), vehicle: saline with Tween-80
[18] = dose: 200.0 mg/kg/injection, schedule: Q04DX003 (ip), vehicle: saline with Tween-80

Measured: T/C

C/C=N\N=C(N)N
inactive: dose: 15.0 mg/kg/injection, schedule: Q01DX Z (ip), vehicle: saline 91 % of control | dose: 30.0 mg/kg/injection, schedule: Q01DX Z (ip), vehicle: saline 97 % of control | dose: 60.0 mg/kg/injection, schedule: Q01DX Z (ip), vehicle: saline 100 % of control | dose: 120.0 mg/kg/injection, schedule: Q01DX Z (ip), vehicle: saline 94 % of control | dose: 120.0 mg/kg/injection, schedule: Q01DX Z (oral), vehicle: other 95 % of control | dose: 240.0 mg/kg/injection, schedule: Q01DX Z (oral), vehicle: other 97 % of control | dose: 480.0 mg/kg/injection, schedule: Q01DX Z (oral), vehicle: other 102 % of control | dose: 960.0 mg/kg/injection, schedule: Q01DX Z (oral), vehicle: other 122 % of control

NC(=O)N/N=C(\CBr)c1ccc([N+](=O)[O-])cc1
inactive: [1] 96 % of control | [2] 89 % of control | [3] 91 % of control

Cc1ccc(OC(=O)C2=C(C(=O)Oc3ccc(C)cc3)CCC2)cc1
inactive: [4] 95 % of control | [5] 97 % of control | dose: 300.0 mg/kg/injection, schedule: Q01DX001 (ip), vehicle: saline 95 % of control

CCc1ccccc1NC(=O)Nc1ccccc1
inactive: [6] 94 % of control | [7] 103 % of control | [8] 98 % of control | [9] 94 % of control | [10] 105 % of control | [11] 95 % of control

CCOC(=O)N1CCc2nc3ccccc3cc21
inactive: dose: 50.0 mg/kg/injection, schedule: Q01DX009 (ip), vehicle: other 100 % of control | dose: 100.0 mg/kg/injection, schedule: Q01DX009 (ip), vehicle: other 90 % of control | dose: 200.0 mg/kg/injection, schedule: Q01DX009 (ip), vehicle: other 93 % of control

CN=C(Nc1ccc(N(C)C)cc1)SC
inactive: dose: 75.0 mg/kg/injection, schedule: Q01DX001 (ip), vehicle: other 105 % of control | dose: 150.0 mg/kg/injection, schedule: Q01DX001 (ip), vehicle: other 103 % of control

CC(=O)Nc1ccn(C2OC(COC(C)=O)C(OC3OC(COC(C)=O)C(OC(C)=O)C(OC(C)=O)C3OC(C)=O)C(OC(C)=O)C2OC(C)=O)c(=O)n1 (stereo unspecified)
inactive: dose: 22.5 mg/kg/injection, schedule: Q01DX001 (ip), vehicle: carboxymethylcellulose (CMC) 103 % of control | dose: 45.0 mg/kg/injection, schedule: Q01DX001 (ip), vehicle: carboxymethylcellulose (CMC) 100 % of control | dose: 90.0 mg/kg/injection, schedule: Q01DX001 (ip), vehicle: carboxymethylcellulose (CMC) 100 % of control | dose: 180.0 mg/kg/injection, schedule: Q01DX001 (ip), vehicle: carboxymethylcellulose (CMC) 100 % of control

Cc1c(Cl)cccc1NC(=O)c1ccc(Cl)cc1Cl
inactive: [6] 92 % of control | [7] 92 % of control | [8] 94 % of control | [9] 95 % of control | [10] 91 % of control | [11] 93 % of control

Cn1ncc(=O)n(C)c1=O
inactive: dose: 50.0 mg/kg/injection, schedule: Q01DX009 (ip), vehicle: saline 97 % of control | [12] 97 % of control | dose: 200.0 mg/kg/injection, schedule: Q01DX009 (ip), vehicle: saline 93 % of control

N#Cc1ccc2c(c1)Cc1cc([N+](=O)[O-])ccc1-2
inactive: [13] 100 % of control | [14] 105 % of control | [15] 91 % of control

O=C1NC(=O)C2(N1)c1ccccc1-c1ccccc12
inactive: [6] 95 % of control | [8] 90 % of control | [10] 95 % of control

c1ccc(CSSCc2ccccc2)cc1
inactive: [6] 100 % of control | [1] 92 % of control | [8] 96 % of control | [2] 88 % of control | [10] 102 % of control | [3] 92 % of control

COc1cccc(-c2c(C(=O)OC(C)(C)C)cc(O)c3ccc(OC)cc23)c1
inactive: [13] 97 % of control | [14] 96 % of control | [15] 97 % of control

O=C1NC(=O)C2(CCCCCCC2)N1
inactive: dose: 50.0 mg/kg/injection, schedule: Q01DX009 (ip), vehicle: Klucel (hydroxypropylcellulose) (HPC) 104 % of control | [16] 111 % of control | [6] 96 % of control | [7] 99 % of control | [8] 96 % of control | [9] 103 % of control

C(#Cc1ccccc1)COCC1CO1 (stereo unspecified)
inactive: dose: 50.0 mg/kg/injection, schedule: Q04DX003 (ip), vehicle: saline with Tween-80 95 % of control | [17] 98 % of control | [18] 91 % of control

CCCCCCCCCCCCCCCCS(=O)(=O)c1ccc(S(=O)(=O)CS(C)(=O)=O)cc1[N+](=O)[O-]
inactive: dose: 100.0 mg/kg/injection, schedule: Q01DX001 (ip), vehicle: other 98 % of control | dose: 200.0 mg/kg/injection, schedule: Q01DX001 (ip), vehicle: other 91 % of control

CCCOC(C)(C)CCC/C(C)=C/COc1ccc(CC)cc1
inactive: dose: 100.0 mg/kg/injection, schedule: Q04DX002 (ip), vehicle: saline with Tween-80 96 % of control | dose: 200.0 mg/kg/injection, schedule: Q04DX002 (ip), vehicle: saline with Tween-80 92 % of control | dose: 400.0 mg/kg/injection, schedule: Q04DX002 (ip), vehicle: saline with Tween-80 105 % of control

CC(C)=NC(=O)NO.[Cl][Mn][Cl]
inactive: dose: 37.5 mg/kg/injection, schedule: Q01DX009 (ip), vehicle: saline 105 % of control | [4] 91 % of control | dose: 75.0 mg/kg/injection, schedule: Q01DX009 (ip), vehicle: saline 111 % of control | [5] 104 % of control | dose: 150.0 mg/kg/injection, schedule: Q01DX009 (ip), vehicle: saline 105 % of control

O=C(Nc1ccc(F)c(Cl)c1)N(CCO)C1CCCCC1
inactive: [7] 101 % of control | [9] 100 % of control | [11] 92 % of control

Oc1cccc2oc(=S)[nH]c12
inactive: dose: 25.0 mg/kg/injection, schedule: Q04DX003 (ip), vehicle: Klucel (hydroxypropylcellulose) (HPC) 106 % of control | [16] 92 % of control | [7] 103 % of control | [17] 95 % of control and 100 % of control | [18] 110 % of control

Nc1nc(N)c2nc3c(nc2n1)C(=O)N(c1ccc(C(=O)O)cc1)C3
inactive: dose: 12.5 mg/kg/injection, schedule: Q01DX001 (ip), vehicle: saline 102 % of control | dose: 25.0 mg/kg/injection, schedule: Q01DX001 (ip), vehicle: saline 91 % of control | dose: 50.0 mg/kg/injection, schedule: Q01DX001 (ip), vehicle: saline 102 % of control | [12] 90 % of control

NC(=O)OCCc1c2ccccc2nc2ccccc12
inactive: dose: 200.0 mg/kg/injection, schedule: Q04DX002 (ip), vehicle: other 103 % of control

O=C(NNC1CCCCC1)c1ccccc1
inactive: dose: 100.0 mg/kg/injection, schedule: Q04DX003 (ip), vehicle: acetone 107 % of control | dose: 200.0 mg/kg/injection, schedule: Q04DX003 (ip), vehicle: acetone 109 % of control | dose: 400.0 mg/kg/injection, schedule: Q04DX003 (ip), vehicle: acetone 86 % of control

O=[N+]([O-])c1ccc2ccc3ccccc3c2c1
inactive: [13] 97 % of control | [14] 95 % of control | [15] 97 % of control
